Experiments:
MAIT cells = experiment: Ex vivo MAIT cell activation and cytokine profile in tumor-bearing lungs; set-up: species or system mouse; settings: lungs of mice injected with treated vs DMSO-treated B16F10, day 5
Description: FIG. 4. Upregulation of MR1 on B16F10 activates MAIT cells to suppress NK cell effector function through IL-17. (A) Schematic to analyze MAIT or NK cell effector function in the lungs of C57BL/6 WT or MR1^−/− mice injected with 5-OP-RU- or DMSO-stimulated B16F10 melanoma cells. On day 5 relative to tumor inoculation, lungs were harvested and stimulated with PMA/ionomycin plus protein transport inhibitors for 4 hours and MAIT or NK cell function was assessed by flow cytometry. (B) The proportion of CD69^+ MAIT cells amongst total MAIT cells (B220^− F4/80^− MR1-5-OP-RU tetramer^+ TCRβ^+) in naïve or tumor-bearing lungs. Data presented as mean±SEM. (C) Representative dot plot of IL-17 expression by MAIT cells. The (D) proportion of IL-17^+ MAIT cells amongst total MAIT cells in the lungs of naïve and tumor-bearing mice as indicated. Data presented as mean±SEM. (E) Representative dot plot of TNF expression by MAIT cells. The (F) proportion of TNF MAIT cells and (G) IFNγ^+ MAIT cells amongst total MAIT cells in the lungs of naïve and tumor-bearing mice as indicated. (H, I) On day 5 relative to tumor inoculation, lungs were harvested (n=6/group) and stimulated with PMA/ionomycin plus protein transport inhibitors for 3 hours and NK cell function was assessed by flow cytometry. The proportion of IFNγ^+ NK cells and CD107a^+ NK cells amongst total NK cells (NKp46^+ NK1.1^+ TCRβ^− CD45.2^+) in tumor-bearing C57BL/6 WT or IL-17^−/− mice. Data presented as mean±SEM. (J) Groups of WT or MR1^−/− mice (n=4-6/group) were injected i.v. with 1×10^5 B16F10 melanoma cells. In some groups, sorted MAIT cells (2×10^5 cells/mouse) from C57BL/6 WT or IL-17A^−/− mice were i.v. injected into the indicated groups of mice one day before tumor inoculation. On day 14 relative to tumor cell inoculation, lungs were harvested and the metastatic burden was quantified by counting colonies on the lung surface. […] Significant differences between groups as indicated by crossbars were determined using a one-way ANOVA followed by Tukey's post-hoc test (B, D, F, J), or a Mann-Whitney test (H, I), *p<0.05, **p<0.01, ***p<0.001, ****p<0.0001.
Naïve or tumor-bearing lung single-cell suspensions were generated as previously described (Blake et al., 2016) and incubated with anti-CD16/32 (2.4G2) to block Fc receptors on ice prior to surface staining with the antibodies. […] All data were collected on a Fortessa 4 flow cytometer (BD Biosciences) and analyzed with FlowJo v10 software (TreeStar, Inc.).
Single cell suspensions from lungs of the indicated groups were incubated in a 96-well U-bottom plate in complete RPMI 1640 media. […] Briefly, anti-CD107a (1D4B, BioLegend) antibody was added to single cell suspension during the stimulation period before these cells were surface stained and analyzed by flow cytometry.

B16F10 cells = experiment: B16F10 proliferative and migratory assays in vitro; format: cell-based, mouse; settings: co-culture of B16F10 with ligand
NK cells = experiment: Ex vivo NK cell effector function in tumor-bearing lungs (IFNγ, CD107a); set-up: species or system mouse
Description: FIG. 3. Upregulation of surface MR1 on tumor cells suppresses NK cell function through MAIT cells. (A) Schematic to analyze NK effector function in the lungs of C57BL/6 WT or MR1^−/− mice injected with 5-OP-RU-pulsed B16F10 or LWT1 cells. On day 5 relative to tumor inoculation, lungs were harvested from the indicated groups of mice (n=5-6/group) and stimulated with PMA/ionomycin plus protein transport inhibitors and NK cell effector function was assessed by flow cytometry. (B) Representative contour plots of IFNγ staining in NK cells (NKp46^+ NK1.1^+ TCRβ^− CD45.2^+) and (C) the proportion and MFI of IFNγ^+ NK cells amongst total NK cells in B16F10-bearing lungs. (D) Representative contour plots of CD107a staining in NK cells and (E) the proportion and MFI of CD107a^+ NK cells amongst total NK cells in B16F10 tumor-bearing lungs. (F) Representative contour plots of IFNγ staining in NK cells and (G) the proportion and MFI of IFNγ^+ NK cells amongst total NK cells in LWT1 tumor-bearing lungs. (H) Representative contour plots of CD107a staining in NK cells and (I) the proportion and MFI of CD107a^+ NK cells amongst total NK cells in the LWT1-bearing lungs. Data presented as mean±SEM. Significant differences between groups as indicated by crossbars were determined using a one-way ANOVA followed by Tukey's post-hoc test, *p<0.05, **p<0.01, ***p<0.001, ****p<0.0001.
FIG. 4. Upregulation of MR1 on B16F10 activates MAIT cells to suppress NK cell effector function through IL-17. (A) Schematic to analyze MAIT or NK cell effector function in the lungs of C57BL/6 WT or MR1^−/− mice injected with 5-OP-RU- or DMSO-stimulated B16F10 melanoma cells. On day 5 relative to tumor inoculation, lungs were harvested and stimulated with PMA/ionomycin plus protein transport inhibitors for 4 hours and MAIT or NK cell function was assessed by flow cytometry. (B) The proportion of CD69^+ MAIT cells amongst total MAIT cells (B220^− F4/80^− MR1-5-OP-RU tetramer^+ TCRβ^+) in naïve or tumor-bearing lungs. Data presented as mean±SEM. (C) Representative dot plot of IL-17 expression by MAIT cells. The (D) proportion of IL-17^+ MAIT cells amongst total MAIT cells in the lungs of naïve and tumor-bearing mice as indicated. Data presented as mean±SEM. (E) Representative dot plot of TNF expression by MAIT cells. The (F) proportion of TNF MAIT cells and (G) IFNγ^+ MAIT cells amongst total MAIT cells in the lungs of naïve and tumor-bearing mice as indicated. (H, I) On day 5 relative to tumor inoculation, lungs were harvested (n=6/group) and stimulated with PMA/ionomycin plus protein transport inhibitors for 3 hours and NK cell function was assessed by flow cytometry. The proportion of IFNγ^+ NK cells and CD107a^+ NK cells amongst total NK cells (NKp46^+ NK1.1^+ TCRβ^− CD45.2^+) in tumor-bearing C57BL/6 WT or IL-17^−/− mice. Data presented as mean±SEM. (J) Groups of WT or MR1^−/− mice (n=4-6/group) were injected i.v. with 1×10^5 B16F10 melanoma cells. In some groups, sorted MAIT cells (2×10^5 cells/mouse) from C57BL/6 WT or IL-17A^−/− mice were i.v. injected into the indicated groups of mice one day before tumor inoculation. On day 14 relative to tumor cell inoculation, lungs were harvested and the metastatic burden was quantified by counting colonies on the lung surface. Data presented as mean±SEM. Data pooled from two independent experiments for (B, D, F, G). Experiments were performed once for (H-K). Significant differences between groups as indicated by crossbars were determined using a one-way ANOVA followed by Tukey's post-hoc test (B, D, F, J), or a Mann-Whitney test (H, I), *p<0.05, **p<0.01, ***p<0.001, ****p<0.0001.
Single cell suspensions from lungs of the indicated groups were incubated in a 96-well U-bottom plate in complete RPMI 1640 media. Cells were incubated in the presence or absence of cell stimulation cocktail (PMA/ionomycin) plus protein transport inhibitors (Golgistop and Golgiplug) (1000 times dilution) for 3-4 hours as indicated. […]

Compound: CC(=O)C=Nc1c(NC[C@H](O)[C@H](O)[C@H](O)CO)[nH]c(=O)[nH]c1=O [5-OP-RU]
- proportion of MAIT cells producing IFNγ (MAIT cells): did not change
- proportion of MAIT cells that expressed CD69 (MAIT cells): increased proportion
- proportion of MAIT cells that expressed IL-17A (MAIT cells): increased proportion
- proportion of MAIT cells that expressed TNF (MAIT cells): increased proportion
- B16F10 biology as measured by proliferative or migratory assays (B16F10 cells): did not alter the biology of these cells
- proportions of IFNγ producing and CD107a expressing NK cells (NK cells; IL-17A-/- mice, treated vs DMSO-treated B16F10, day 5): this reduction was not observed
- NK cell effector function (NK cells; MR1-/- mice that received treated LWT1): did not manifest
- NK cell effector function (NK cells; WT mice that received treated LWT1): suppression of NK cell effector function was observed
- NK cell function (NK cells; lungs of MR1-/- mice, treated vs DMSO-treated B16F10, day 5): not suppressed
- proportions of NK cells producing IFNγ and MFI (NK cells; lungs of WT mice bearing treated vs DMSO-treated B16F10, day 5): significantly decreased
- proportions of NK cells expressing CD107a and expression levels (NK cells; lungs of WT mice, treated vs DMSO-treated B16F10, day 5): significantly decreased

Source: patent publication US20220213198A1, “METHOD OF TREATMENT” (The Council of the Queensland Institute of Medical Research, priority 2019, published 2022)
